The source of these data is paper PMC5839231, “Isolation and Characterization of Protein Tyrosine Phosphatase 1B (PTP1B) Inhibitory Polyphenolic Compounds From Dodonaea viscosa and Their Kinetic Analysis” (Frontiers in Chemistry, 2018).

SMILES strings stand for the structures. Like-named read-outs stand apart in the source and are kept apart here.

Experiment [1] addresses T1, Protein tyrosine phosphatase 1B (PTP1B) (Homo sapiens, UniProt P18031).
T1 sequence (P18031 1-435): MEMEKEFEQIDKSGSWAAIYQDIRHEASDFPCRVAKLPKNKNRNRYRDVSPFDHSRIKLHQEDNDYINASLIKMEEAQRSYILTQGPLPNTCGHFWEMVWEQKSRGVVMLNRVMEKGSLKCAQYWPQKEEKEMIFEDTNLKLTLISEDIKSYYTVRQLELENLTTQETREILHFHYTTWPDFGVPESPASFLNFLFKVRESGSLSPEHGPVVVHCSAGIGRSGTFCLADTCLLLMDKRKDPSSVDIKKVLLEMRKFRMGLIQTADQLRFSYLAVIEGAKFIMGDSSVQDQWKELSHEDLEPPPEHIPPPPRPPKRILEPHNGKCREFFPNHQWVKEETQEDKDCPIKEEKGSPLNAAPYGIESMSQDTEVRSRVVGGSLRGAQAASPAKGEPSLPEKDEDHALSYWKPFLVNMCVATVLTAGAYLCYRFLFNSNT
As to the kind of experiment: PTP1B inhibitory assay (hydrolysis of p-nitrophenyl phosphate, 405 nm). The class given is biochemical. Conditions: for IC50: pNPP substrate, 37°C, experiments repeated three times. Here is the method:
(§1) Protein tyrosine phosphatase 1B inhibitory assay was performed with slight modification to the previously reported method (Song et al., [2017]). Tris–HCl buffer (25 mM, pH 7.5) which contained 1 mM (ethylenediaminetetraacetic acid) EDTA, 1 mM dithiothreitol (DTT), and 2 mM β-mercaptoethanol was used as buffer solution, whereas p-nitrophenyl phosphate (pNPP), a substrate of PTP1B was utilized for enzyme activity measurement. Enzyme assay was started by mixing 10 μL of test compounds with 130 μL of Tris-HCl buffer solution in 96-well plate, then 20 μL of enzyme (EC 3.1.3.48, 1μg/mL), and finally 40 μL of substrate (4 mM pNPP) was added at 37°C for 10 min. During the substrate hydrolysis, pNPP was de-phosphorylated, giving product pNP, which was detected by Spectra Max M3 Multi-Mode Microplate reader (Molecular devices, USA) at a wavelength of 405 nm for 30 min. […] Kinetic parameters were determined by Line weaver-Burk and Dixon plots. Sigma Plot (SPCC Inc., Chicago, IL, USA) was utilized for data setting and calculation.

The target in experiment [2] is T1, Protein tyrosine phosphatase 1B (PTP1B). As to the kind of experiment: PTP1B inhibitory kinetics (Lineweaver-Burk, Dixon and secondary plots). The class given is biochemical. The note with it: for Type of inhibition: Lineweaver-Burk plots, substrate 0.437-1.75 mM pNPP. Here is the method:
as §1
In order to study detailed kinetics of PTP1B, Michaelis-Menten equation (4) is applied, who's reciprocal is taken which transform to a new equation, Line weaver-Burk equation (5). Using this equation Line weaver-Burk plots were constructed, which were applied for the analysis of inhibitory kinetics of test compounds. Different inhibitor concentrations accompanied with varying substrate concentrations were used for determination of enzymes steady-state rates, subsequently kinetic parameters related to PTP1B inhibition were also determined. The values of inhibitory constants KI and KIS, when free enzyme binds with inhibitor (KI) or enzyme-substrate-complex interact with inhibitor (KIS) were obtained from secondary plots of the slopes and vertical intercept (1/V^appmax) vs. inhibitors concentration. The representative Equations (1–3) were used to acquire KI and KIS values (Chiari et al., [2011]).
For inhibition parameters, an assay was performed having different substrate concentrations (0.437–1.75 mM), and several dilutions of tested compounds.
The effects of different concentrations of the bioactive active compounds on the hydrolysis of p-nitrophenyl phosphate by PTP1B were studied. We assayed different concentrations (3.75, 7.5, 15, 30, 60, and 120 μM) of inhibitors (1-9) with the given enzyme and substrate. As a result, we observed a gradual decrease in enzyme activity (% activity) with increasing inhibitors concentrations as shown in Figure 2A. […] Plots of residual enzyme activity vs. enzyme concentration at different concentrations (0, 6.7, 13.5, and 27 μM) of compound 4 gave a family of lines which intersected on x-axis at 0 intercept. […] In order to explore the mechanistic behavior and kinetic features of the tested compounds, detailed kinetic study was performed. For this purpose the target enzyme was assayed in different concentrations of substrate (0.437, 0.875, 1.75 mM), in the presence of several dilutions of the respective compound, been graphically presented in double reciprocal plots (Linweaver-Burk and Dixon plots). Representatively, here we have explained compound 4 in detail, the Lineweaver-Burk plots of (4) produced a family of straight lines which intersected on the left side of y-axis and above the x-axis as shown in Figure 3A. The inhibitory constants (KI and KIS) were obtained by plotting the slopes and intercepts vs. different concentrations of compound 4 (Figure 3A, insets). […] In kinetic plots the abscissa [I] is the concentration of compound, where the coordinate1/V represents reciprocal of enzyme activity.

The mark [3] stands for this setting: from Dixon plots, read-out: Ki (inhibition constant).

On to `COc1cc2oc(-c3ccc(O)cc3)c(OC)c(=O)c2c(O)c1OC` [Compound 1, penduletin], for which, in experiment [1], the IC50 turned out to be 57.9 ± 0.6 µM. In addition, in experiment [2], the Type of inhibition result was “Mixed”. Also, the Ki in experiment [2] (setting [3]) was found to be 27.3 µM.

`COc1c(O)cc2oc(-c3ccc(O)cc3)c(OC)c(=O)c2c1O` [Compound 3, viscosine] gave a half-maximal inhibitory concentration (IC50) in experiment [1] of 18.7 ± 0.6 µM. For the same compound, the Type of inhibition entry in experiment [2] is reported as “Mixed”. In addition, the Ki in experiment [2] (setting [3]) turned out to be 6.9 µM.

On to `COc1ccc(-c2oc3cc(O)c(OC)c(O)c3c(=O)c2OC)cc1CC=C(C)C` [Compound 4, 5,7-dihydroxy-3,6-dimethoxy-2-(4-methoxy-3-(3-methylbut-2-enyl)phenyl)-4H-chromen-4-one], for which the “fold more potency than mother skeleton 1” value in experiment [1] (IC50 comparison with compound 1) came out at 6 fold. The “fold more potency than mother skeleton 2” value in experiment [1] (IC50 comparison with compound 2) came to 2.5 fold. The compound further showed a half-maximal inhibitory concentration (IC50) in experiment [1] of 13.5 ± 0.3 µM. Besides, the Type of inhibition result in experiment [2] was “mixed type I”. In addition, the inhibition constant (Ki) in experiment [2] (setting [3]) amounted to 4.6 µM; in experiment [2] (secondary plot of slopes vs. inhibitor concentration, Equation 2, read-out: KI (inhibitor binding to free enzyme)) it was 4.1 ± 0.2 µM. For the same compound, the Reversibility of inhibition result in experiment [2] (residual enzyme activity vs. enzyme concentration at 0, 6.7, 13.5, 27 μM inhibitor) is listed as “reversible”. Besides, in experiment [2] (secondary plot of intercepts vs. inhibitor concentration, Equation 3), the “KIS (inhibitor binding to enzyme-substrate complex)” value came out at 26.4 ± 0.4 µM.

In the case of `C=C(C)C(O)Cc1cc(-c2oc3cc(O)c(OC)c(O)c3c(=O)c2OC)ccc1OC` (centres unmarked) [Compound 5, 5,7-dihydroxy-3′-(2-hydroxy-3-methylbutenyl)-3,6,4′-trimethoxy-flavone], the IC50 in experiment [1] is 28.4 ± 0.9 µM. The Type of inhibition result in experiment [2] is recorded as “Mixed”. Also, in experiment [2] (setting [3]), the Ki amounted to 10.1 µM.

As for `COc1ccc(-c2oc3cc(O)c(OC)c(O)c3c(=O)c2OC)cc1CCC(C)CO` (centres unmarked) [Compound 6], in experiment [1], the half-maximal inhibitory concentration (IC50) is 56 ± 0.3 µM. In experiment [2], the Type of inhibition entry is on record as “Mixed”. For the same compound, the Ki in experiment [2] (setting [3]) turned out to be 22.8 µM.

Regarding `COc1c(O)cc2oc(-c3ccc(O)c(CCC(C)CO)c3)c(OC)c(=O)c2c1O` (centres unmarked) [Compound 7, 5,7,4′-trihydroxy-3′-(3-hydroxymethylbutyl)-3,6-dimethoxyflavone], half-maximal inhibition in experiment [1] (IC50) was put at 41.8 ± 0.5 µM. For the same compound, the Type of inhibition entry in experiment [2] is recorded as “Mixed”. Moreover, the inhibition constant Ki in experiment [2] (setting [3]) was 14.3 µM.

With `CC1OC(OCC2OC(Oc3c(-c4ccc(O)cc4)oc4cc(O)cc(O)c4c3=O)C(O)C(O)C2O)C(O)C(O)C1O` (centres unmarked) [Compound 8, Kaempferol 3-O-rutinoside], the IC50 in experiment [1] was found to be 20.5 ± 0.8 µM. Further, the Type of inhibition result in experiment [2] is “Non-competitive”. For the same compound, in experiment [2] (setting [3]), the Ki was determined as 13 µM.

In the case of `COc1cc(-c2oc3cc(O)cc(O)c3c(=O)c2OC2OC(COC3OC(C)C(O)C(O)C3O)C(O)C(O)C2O)ccc1O` (centres unmarked) [Compound 9, Isorhamnetin3-O-robinobioside], the IC50 in experiment [1] was found to be 42.9 ± 0.4 µM. Further, in experiment [2], the Type of inhibition result is listed as “Non-competitive”. Also, the Ki in experiment [2] (setting [3]) was found to be 26.4 µM.
